Converted amounts (≈) assume the structure as drawn. The source made the active and inactive calls. The calls are words filed in the database; no cut-off is given here.
Key:
Type in all cases: functional
Klebsiella pneumoniae [1] = experiment: Antibacterial activity against Klebsiella pneumoniae MTCC 432 at 100 ug/ml after 16 to 18 hr by cup-plate method; details: read-out: IZ
Staphylococcus aureus [2] = experiment: Antibacterial activity against Staphylococcus aureus MTCC 096 at 100 ug/ml after 16 to 18 hr by cup-plate method; details: read-out: IZ
Pseudomonas aeruginosa [3] = experiment: Antibacterial activity against Pseudomonas aeruginosa MTCC 424 after 16 hr by cup-plate method; details: MTCC 424, 16 h
Aspergillus fumigatus [4] = experiment: Antifungal activity against Aspergillus fumigatus MTCC 343 after 28 to 30 hr by cup-plate method
Candida albicans [5] = experiment: Antifungal activity against Candida albicans MTCC 227 at 100 ug/ml after 28 to 30 hr by cup-plate method; details: for zone of inhibition at 100 µg/mL: read-out: IZ
Pseudomonas aeruginosa [6] = experiment: Antibacterial activity against Pseudomonas aeruginosa MTCC 424 at 100 ug/ml after 16 to 18 hr by cup-plate method; details: read-out: IZ
Bacillus subtilis [7] = experiment: Antibacterial activity against Bacillus subtilis MTCC 441 after 16 hr by cup-plate method; details: MTCC 441, 16 h
Aspergillus flavus [8] = experiment: Antifungal activity against Aspergillus flavus MTCC 277 at 100 ug/ml after 28 to 30 hr by cup-plate method; details: for zone of inhibition at 100 µg/mL: read-out: IZ
Aspergillus niger [9] = experiment: Antifungal activity against Aspergillus niger MTCC 282 after 28 to 30 hr by cup-plate method
[10] = tested on: Staphylococcus epidermidis; experiment: Antibacterial activity against Staphylococcus epidermidis MTCC 435 after 16 hr by cup-plate method; details: MTCC 435, 16 h
Escherichia coli [11] = experiment: Antibacterial activity against Escherichia coli MTCC 443 at 100 ug/ml after 16 to 18 hr by cup-plate method; details: read-out: IZ
Salmonella typhi = experiment: Antibacterial activity against Salmonella enterica subsp. enterica serovar Typhi MTCC 733 at 100 ug/ml after 16 to 18 hr by cup-plate method; details: read-out: IZ
Aspergillus niger [12] = experiment: Antifungal activity against Aspergillus niger MTCC 282 at 100 ug/ml after 28 to 30 hr by cup-plate method; details: for zone of inhibition at 100 µg/mL: read-out: IZ
Bacillus subtilis [13] = experiment: Antibacterial activity against Bacillus subtilis MTCC 441 at 100 ug/ml after 16 to 18 hr by cup-plate method; details: read-out: IZ
Aspergillus flavus [14] = experiment: Antifungal activity against Aspergillus flavus MTCC 277 after 28 to 30 hr by cup-plate method
Candida albicans [15] = experiment: Antifungal activity against Candida albicans MTCC 227 after 28 to 30 hr by cup-plate method
Escherichia coli [16] = experiment: Antibacterial activity against Escherichia coli MTCC 443 after 16 hr by cup-plate method; details: MTCC 443, 16 h
Aspergillus fumigatus [17] = experiment: Antifungal activity against Aspergillus fumigatus MTCC 343 at 100 ug/ml after 28 to 30 hr by cup-plate method; details: for zone of inhibition at 100 µg/mL: read-out: IZ
Klebsiella pneumoniae [18] = experiment: Antibacterial activity against Klebsiella pneumoniae MTCC 432 after 16 hr by cup-plate method; details: MTCC 432, 16 h
[19] = tested on: Staphylococcus epidermidis; experiment: Antibacterial activity against Staphylococcus epidermidis MTCC 435 at 100 ug/ml after 16 to 18 hr by cup-plate method; details: read-out: IZ
Staphylococcus aureus [20] = experiment: Antibacterial activity against Staphylococcus aureus MTCC 096 after 16 hr by cup-plate method; details: MTCC 096, 16 h

Row | Structure (SMILES) | zone of inhibition at 100 µg/mL (Klebsiella pneumoniae [1]) | zone of inhibition at 100 µg/mL (Staphylococcus aureus [2]) | MIC (Pseudomonas aeruginosa [3]) | MIC (Aspergillus fumigatus [4]) | zone of inhibition at 100 µg/mL (Candida albicans [5]) | zone of inhibition at 100 µg/mL (Pseudomonas aeruginosa [6]) | MIC (Bacillus subtilis [7]) | zone of inhibition at 100 µg/mL (Aspergillus flavus [8]) | MIC (Aspergillus niger [9]) | MIC [10] | zone of inhibition at 100 µg/mL (Escherichia coli [11]) | zone of inhibition at 100 µg/mL (Salmonella typhi) | zone of inhibition at 100 µg/mL (Bacillus subtilis [13]) | MIC (Aspergillus flavus [14]) | MIC (Candida albicans [15]) | MIC (Escherichia coli [16]) | zone of inhibition at 100 µg/mL (Aspergillus fumigatus [17]) | MIC (Klebsiella pneumoniae [18]) | zone of inhibition at 100 µg/mL [19] | MIC (Staphylococcus aureus [20]) | also measured
1 | c1ccc2c(c1)Sc1cccnc1N2CCCCCCN1c2ccccc2Sc2cccnc21 | 12 mm | 13 mm | 50 µg/mL (≈ 104 µM) | > 50 µg/mL | 12 mm | 11 mm | 25 µg/mL (≈ 51.8 µM) | 12 mm | 25 µg/mL (≈ 51.8 µM) | 6.25 µg/mL (≈ 12.9 µM) | 12 mm | 12 mm | 12 mm | 25 µg/mL (≈ 51.8 µM) | 12.5 µg/mL (≈ 25.9 µM) | 12.5 µg/mL (≈ 25.9 µM) | 10 mm | 25 µg/mL (≈ 51.8 µM) | 13 mm | 6.25 µg/mL (≈ 12.9 µM) | zone of inhibition at 100 µg/mL (Aspergillus niger [12]): 11 mm
2 | CC(=O)Nc1ccccc1Sc1ncccc1[N+](=O)[O-] | 11 mm | 11 mm | 12.5 µg/mL (≈ 43.2 µM) | > 50 µg/mL | 12 mm | 12 mm | 25 µg/mL (≈ 86.4 µM) | 12 mm | > 50 µg/mL | 25 µg/mL (≈ 86.4 µM) | 10 mm | 12 mm | 12 mm | 12.5 µg/mL (≈ 43.2 µM) | 12.5 µg/mL (≈ 43.2 µM) | > 50 µg/mL |  | 50 µg/mL (≈ 173 µM) | 11 mm | > 50 µg/mL | inhibition zone (IZ) (Aspergillus niger [12]): inactive; inhibition zone (IZ) (Aspergillus fumigatus [17]): inactive
3 | C(=C\CN1c2ccccc2Sc2cccnc21)/CN1c2ccccc2Sc2cccnc21 | 11 mm | 12 mm | 12.5 µg/mL (≈ 27.6 µM) | 6.25 µg/mL (≈ 13.8 µM) | 12 mm | 12 mm | > 50 µg/mL | 12 mm | 12.5 µg/mL (≈ 27.6 µM) | > 50 µg/mL | 11 mm | 11 mm | 10 mm | 12.5 µg/mL (≈ 27.6 µM) | 12.5 µg/mL (≈ 27.6 µM) | 50 µg/mL (≈ 110 µM) | 13 mm | 50 µg/mL (≈ 110 µM) | 10 mm | 12.5 µg/mL (≈ 27.6 µM) | zone of inhibition at 100 µg/mL (Aspergillus niger [12]): 12 mm
4 | c1ccc2c(c1)Sc1cccnc1N2CCCCN1c2ccccc2Sc2cccnc21 | 12 mm | 11 mm | 6.25 µg/mL (≈ 13.7 µM) | > 50 µg/mL |  | 13 mm | > 50 µg/mL |  | > 50 µg/mL | 12.5 µg/mL (≈ 27.5 µM) | 11 mm | 12 mm | 10 mm | > 50 µg/mL | > 50 µg/mL | > 50 µg/mL |  | 25 µg/mL (≈ 55 µM) | 12 mm | 50 µg/mL (≈ 110 µM) | inhibition zone (IZ) (Candida albicans [5]): inactive; inhibition zone (IZ) (Aspergillus flavus [8]): inactive; inhibition zone (IZ) (Aspergillus niger [12]): inactive; inhibition zone (IZ) (Aspergillus fumigatus [17]): inactive
5 | Clc1ccc(COC(Cn2ccnc2)c2ccc(Cl)cc2Cl)c(Cl)c1 (stereo unspecified) [MICONAZOLE] |  |  |  | 6.25 µg/mL (≈ 15 µM) | 19 mm |  |  | 17 mm | 6.25 µg/mL (≈ 15 µM) |  |  |  |  | 12.5 µg/mL (≈ 30 µM) | 6.25 µg/mL (≈ 15 µM) |  | 15 mm |  |  |  | zone of inhibition at 100 µg/mL (Aspergillus niger [12]): 18 mm
6 | CC(=O)Nc1ccc(Cl)cc1Sc1ncccc1[N+](=O)[O-] | 13 mm | 12 mm | 6.25 µg/mL (≈ 19.3 µM) | 12.5 µg/mL (≈ 38.6 µM) | 14 mm | 14 mm | 25 µg/mL (≈ 77.2 µM) | 12 mm | 6.25 µg/mL (≈ 19.3 µM) | 6.25 µg/mL (≈ 19.3 µM) | 12 mm | 12 mm | 12 mm | 25 µg/mL (≈ 77.2 µM) | 6.25 µg/mL (≈ 19.3 µM) | 12.5 µg/mL (≈ 38.6 µM) | 12 mm | 6.25 µg/mL (≈ 19.3 µM) | 13 mm | 25 µg/mL (≈ 77.2 µM) | zone of inhibition at 100 µg/mL (Aspergillus niger [12]): 14 mm
7 | Brc1ccc2c(c1)Sc1cccnc1N2C/C=C/CN1c2ccc(Br)cc2Sc2cccnc21 | 11 mm | 12 mm | > 50 µg/mL | 12.5 µg/mL (≈ 20.5 µM) | 10 mm | 10 mm | 25 µg/mL (≈ 41 µM) | 11 mm | > 50 µg/mL | > 50 µg/mL | 12 mm | 11 mm | 11 mm | > 50 µg/mL | > 50 µg/mL | 12.5 µg/mL (≈ 20.5 µM) | 12 mm | 50 µg/mL (≈ 81.9 µM) | 11 mm | 25 µg/mL (≈ 41 µM) | inhibition zone (IZ) (Aspergillus niger [12]): inactive
8 | Brc1ccc2c(c1)Sc1cccnc1N2CCCCN1c2ccc(Br)cc2Sc2cccnc21 | 11 mm | 12 mm | 12.5 µg/mL (≈ 20.4 µM) | 12.5 µg/mL (≈ 20.4 µM) | 11 mm | 12 mm | 50 µg/mL (≈ 81.6 µM) | 10 mm | 50 µg/mL (≈ 81.6 µM) | 25 µg/mL (≈ 40.8 µM) | 12 mm | 10 mm | 11 mm | > 50 µg/mL | 50 µg/mL (≈ 81.6 µM) | 12.5 µg/mL (≈ 20.4 µM) | 12 mm | 50 µg/mL (≈ 81.6 µM) | 11 mm | 12.5 µg/mL (≈ 20.4 µM) | zone of inhibition at 100 µg/mL (Aspergillus niger [12]): 11 mm
9 | CC(=O)Nc1ccc(F)cc1Sc1ncccc1[N+](=O)[O-] | 11 mm | 13 mm | 6.25 µg/mL (≈ 20.3 µM) | 6.25 µg/mL (≈ 20.3 µM) | 14 mm | 14 mm | 25 µg/mL (≈ 81.4 µM) | 10 mm | 6.25 µg/mL (≈ 20.3 µM) | 25 µg/mL (≈ 81.4 µM) | 14 mm | 12 mm | 12 mm | > 50 µg/mL | 6.25 µg/mL (≈ 20.3 µM) | 6.25 µg/mL (≈ 20.3 µM) | 16 mm | > 50 µg/mL | 12 mm | 12.5 µg/mL (≈ 40.7 µM) | zone of inhibition at 100 µg/mL (Aspergillus niger [12]): 18 mm
